Where “and” joins values, the source holds several entries; their conditions need not be identical. Identical values can stand only once.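 Briefly, cells in 96-well plates were exposed to five compound concentrations for 48 h, and endpoints were estimated by linear interpolation. GI50 marks 50% less growth. TGI: concentration producing complete growth inhibition.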
Tests used:
Test in all cases: DTP human tumour cell line panel, 48 h
[1] = system: OVCAR-8 ovarian
[2] = system: A549 NSCLC
[3] = system: LOX IMVI melanoma
[4] = system: SW-620 colon
[5] = system: SK-MEL-2 melanoma
[6] = system: SN12C renal
[7] = system: RPMI-8226 leukemia
[8] = system: HCT-15 colon
[9] = system: U251 CNS
[10] = system: OVCAR-4 ovarian
[11] = system: SK-MEL-28 melanoma
[12] = system: SK-MEL-5 melanoma
[13] = system: T-47D breast

Compound	TGI [1] [µM]	TGI [2]	TGI [3] [µM]	TGI [4] [µM]	TGI [5] [µM]	TGI [6] [µM]	TGI [7] [µM]	TGI [8] [µM]	TGI [9] [µM]	TGI [10] [µM]	TGI [11]	TGI [12] [µM]	TGI [13]	GI50 [13] [µM]	GI50 [11] [µM]	GI50 [4] [µM]	GI50 [5] [µM]	GI50 [6] [µM]	GI50 [8] [µM]	GI50 [10] [µM]
CCc1cccc(C(C)C)c1NC(=O)C(=O)C(C(=O)C(=O)OC)c1nc2ccccc2[nH]c1=O (stereo not given)	> 100	> 100 µM	> 100	> 100	> 100	> 100	> 100	> 100	> 100	> 100	> 100 µM	> 100	–	–	–	–	–	–	–	–
Cc1ccc(NC(=O)CC(=O)n2nc(-c3ccccc3)c(N=Nc3ccc(Cl)cc3)c2-c2ccccc2)cc1	60.6	64.4 µM	29.9	31	> 100	> 100	47.8	> 100	–	> 100	> 100 µM	> 100	–	–	–	–	–	–	–	–
CC12O[C@H](c3ccccc3)[C@H](c3ccccc3)N1C(=O)C1(C(=O)OCc3ccccc3)CC12 (stereo not given in full)	> 100	> 100 µM	> 100	> 100	> 100	> 100	–	> 100	–	> 100	–	> 100	–	–	–	–	–	–	–	–
CN(C)C(=O)CC(C(=O)O)c1c[nH]c2ccccc12 (stereo not given)	> 100	> 100 µM	> 100	> 100	> 100	> 100	> 100	> 100	> 100	> 100	–	> 100	–	–	–	–	–	–	–	–
N#C/C(=C/c1cccnc1)C(=O)c1ccccc1	> 100	> 100 µM	> 100	> 100	> 100	> 100	> 100	> 100	> 100	> 100	> 100 µM	> 100	–	–	–	–	–	–	–	–
c1ccc2nc3[nH]c4ccccc4c3cc2c1	2.35	9.14 µM	1.16	–	16	3.34	2.53	1.38	1.99	2.79	–	2.01	–	–	–	–	–	–	–	–
C[n+]1c2ccccc2c(CNC(CCC(N)=O)C(=O)O)c2ccccc21 (stereo not given)	7.55	11.8 µM	6.64	1.95	12	7.36	2.54	4.31	12.8	9.24	12.1 µM	10.5	–	–	–	–	–	–	–	–
NC(=O)N/N=C(\Cc1nc2ccc(C(=O)c3ccccc3)cc2[nH]c1=O)C(=O)Nc1ccc(Br)cc1	> 100	> 100 µM	> 100	> 100	> 100	> 100	> 100	> 100	> 100	> 100	> 100 µM	> 100	–	–	–	–	–	–	–	–
Cc1cc(N(CCC#N)CCC#N)ccc1/C=C(\NC(=O)/C=C/c1ccccc1)NC(=O)Nc1ccc(Cl)cc1	> 100	> 100 µM	> 100	> 100	> 100	> 100	> 100	> 100	39.4	> 100	> 100 µM	> 100	–	–	–	–	–	–	–	–
Cc1cc(C)c2c(n1)S(=O)(=O)N(CCCN1CCN(c3cccc(C(F)(F)F)c3)CC1)/C(=C(\O)c1ccccc1)C2=O	> 100	> 100 µM	11.3	29.3	> 100	> 100	–	67	> 100	63.9	57.5 µM	14.1	> 100 µM	–	–	–	–	–	–	–
COC(=O)NCCc1[nH]nc2c1C(=O)C=C(OC)C2=O	42.8	> 100 µM	33.7	43.9	> 100	38.8	53.9	71.6	32	35.5	35.3 µM	28.9	–	–	–	–	–	–	–	–
O=C1CN(c2ccc(Cl)cc2)C(=O)CN1CCN1CC(=O)N(c2ccc(Cl)cc2)CC1=O	> 100	> 100 µM	–	> 100	–	> 100	> 100	> 100	> 100	> 100	> 100 µM	> 100	–	–	–	–	–	–	–	–
OCCCSc1ccccc1SCCCO	> 100	> 100 µM	> 100	> 100	–	> 100	–	> 100	> 100	> 100	> 100 µM	> 100	> 100 µM	–	–	–	–	–	–	–
O=C(CSc1nnc(Cc2ccccc2)o1)Nc1ccc(Cl)cc1	> 100	> 100 µM	> 100	> 100	> 100	> 100	> 100	> 100	> 100	> 100	> 100 µM	> 100	–	–	–	–	–	–	–	–
CCOC(=O)c1c(C)n(Cc2ccccc2)c2c1cc(O)c1[nH]c3c(c12)CCCC3	20.6	19.6 µM	16.8	13.3	5.25	17.8	4.97	13.9	4.1	4.08	18.7 µM	15	–	–	–	–	–	–	–	–
O=[N+]([O-])c1ccc(NC2OCC(O)C(O)C2O)cc1 (stereo not given)	> 100	> 100 µM	> 100	> 100	> 100	> 100	> 100	> 100	> 100	> 100	> 100 µM	> 100	–	–	–	–	–	–	–	–
Cc1ccc(/C=C2\NC(=S)N(CN3CCOCC3)C2=O)cc1	> 100	> 100 µM	> 100	> 100	> 100	> 100	> 100	> 100	> 100	> 100	> 100 µM	> 100	–	–	–	–	–	–	–	–
Nc1nc2c(ncn2CCOC(c2ccccc2)P(=O)(O)O)c(=O)[nH]1 (stereo not given)	> 100	> 100 µM	> 100	> 100	> 100	> 100	–	> 100	> 100	–	> 100 µM	> 100	–	–	–	–	–	–	–	–
Cn1c(-c2csc(-c3ccc(Cl)cc3)n2)n[nH]c1=S	47.2	> 100 µM	73	> 100	–	> 100	–	> 100	–	50.9	> 100 µM	> 100	> 100 µM	–	–	–	–	–	–	–
Cc1cc2c(c3oc(C(O)(CO)C4CO4)cc(=O)c13)C(=O)c1c(O)cccc1C2=O (stereo not given)	–	0.0139 µM and 0.0213 µM and 0.0606 µM	–	–	0.00415	–	–	0.00152	0.00411	–	0.0095 µM and 0.00824 µM and 0.0382 µM	–	0.00683 µM and 0.00232 µM and 0.0146 µM	0.00375	0.00375	–	–	–	–	–
OCCSCCCSCCO	> 100	> 100 µM	> 100	> 100	–	> 100	–	> 100	> 100	> 100	> 100 µM	> 100	> 100 µM	–	–	–	–	–	–	–
Cc1cc(Cc2cc(C)c(NC(=O)C(=O)C3C(=O)NC(=S)NC3=O)c(C(C)C)c2)cc(C(C)C)c1NC(=O)C(=O)C1C(=O)NC(=S)NC1=O	> 100	> 100 µM	> 100	> 100	–	> 100	> 100	> 100	> 100	> 100	> 100 µM	–	–	–	–	–	–	–	–	–
CN1N=C2c3ccccc3CC[C@H]2C1c1ccccc1 (stereo not given in full)	> 100	> 100 µM	> 100	> 100	> 100	> 100	> 100	> 100	> 100	> 100	> 100 µM	–	–	–	–	–	–	–	–	–
CCSc1nc2sc(C)c(C)c2c(=O)n1-c1ccc(C(=O)O)cc1	> 100	> 100 µM	> 100	> 100	> 100	> 100	> 100	> 100	> 100	> 100	> 100 µM	> 100	–	–	–	–	–	–	–	–
CC1=C(C2=C(C)C(=O)C(=O)c3cc(C)ccc32)c2ccc(C)cc2C(=O)C1=O	0.54	2.73 µM	> 100	–	0.877	0.314	0.705	> 100	0.685	–	–	0.374	–	–	–	–	–	–	–	–
Cc1nc2c(nc1C)-c1c(c3c(n1Cc1ccccc1)C(=O)CCC3)C(=O)C2=O	> 100	> 100 µM	–	–	31.7	–	–	> 100	–	3.59	4.18 µM	24.6	> 100 µM	–	–	–	–	–	–	–
O=c1ccc2ccccc2o1	> 100	> 100 µM	> 100	> 100	> 100	> 100	> 100	> 100	> 100	> 100	> 100 µM	–	–	–	–	–	–	–	–	–
COC(=O)C(NC(=O)CNC(=O)CSc1nnc(COc2ccc(Cl)cc2)n1-c1ccccc1)C(C)C (stereo not given)	40.8	> 100 µM	50	38.2	40.5	35.9	46.7	48.9	35.5	57.1	31.1 µM	30	–	–	–	–	–	–	–	–
CN1CCN(CC(=O)Nc2ccc3ncnc(Nc4ccc(Oc5cccc(C(F)(F)F)c5)c(Cl)c4)c3c2)CC1	–	–	–	3.25	4.04	3.26	–	2.52	–	3.02	3.16 µM	–	4.1 µM	1.66	1.71	1.72	2.02	1.7	1.2	1.51

Reference: PubChem BioAssay (NCI)
